Active and inactive are the calls of the source. The rule behind the calls is not given here.
Assays:
Oryza sativa [1] = assay: Induction of PBZ1 gene expression in three-leaf stage of Oryza sativa (rice) plant leaf after 5 days by Northern blot analysis; assay type: functional, organism-based
Oryza sativa [2] = assay: Induction of disease resistant in three-leaf stage of Oryza sativa (rice) plant against Xanthomonas oryzae pv. oryzae-induced leaf blight at 0.05 to 0.5 mg/pot after 7 days; assay type: functional, organism-based
Oryza sativa [3] = assay: Induction of disease resistant in three-leaf stage of Oryza sativa (rice) plant against Xanthomonas oryzae pv. oryzae-induced leaf blight at 5 mg/pot after 7 days; assay type: functional
[4] = test system: Xanthomonas oryzae pv. oryzae; assay: Antibacterial activity against Xanthomonas oryzae pv. oryzae up to 1 mg/ml after 48 hr; assay type: functional, organism-based
Oryza sativa [5] = assay: Induction of disease resistant in three-leaf stage of Oryza sativa (rice) plant against Xanthomonas oryzae pv. oryzae-induced leaf blight after 7 days; assay type: functional, organism-based
Oryza sativa [6] = assay: Induction of disease resistant in three-leaf stage of Oryza sativa (rice) plant against Xanthomonas oryzae pv. oryzae-induced leaf blight at 0.05 to 5 mg/pot after 7 days; assay type: functional, organism-based

N#CCNC(=O)c1ccnc(Cl)c1
Activity (Oryza sativa [1]): Dose-dependent effect

Cn1nc(Cl)cc1C(=O)O [3-CHLORO-1-METHYL-1H-PYRAZOLE-5-CARBOXYLIC ACID]
Activity (Oryza sativa [2]): Active | Activity (Oryza sativa [1]): Dose-dependent effect | Activity (Oryza sativa [3]): 99.5% | Activity [4]: inactive | Activity (Oryza sativa [5]): Dose-dependent effect

CSC(=O)c1cccc2nnsc12
Activity (Oryza sativa [1]): Dose-dependent effect | Activity (Oryza sativa [6]): Active

C=CCOC1=NS(=O)(=O)c2ccccc21
Activity (Oryza sativa [1]): Dose-dependent effect | Activity (Oryza sativa [6]): Active

Reference: ChEMBL document CHEMBL3045433, “Induction of Resistance against Rice Bacterial Leaf Blight by 3-Chloro-1-methyl-1H-pyrazole-5-carboxylic Acid” (2005)
